The results in this text go back to patent US20090069370A1, “AZACYCLYLISOQUINOLINONE AND ISOINDOLINONE DERIVATIVES AS HISTAMINE-3 ANTAGONISTS” (Wyeth, priority 2007, published 2009).

Counter-ions that a name gives are not always drawn.

T1 sequence (Q9Y5N1 whole entry): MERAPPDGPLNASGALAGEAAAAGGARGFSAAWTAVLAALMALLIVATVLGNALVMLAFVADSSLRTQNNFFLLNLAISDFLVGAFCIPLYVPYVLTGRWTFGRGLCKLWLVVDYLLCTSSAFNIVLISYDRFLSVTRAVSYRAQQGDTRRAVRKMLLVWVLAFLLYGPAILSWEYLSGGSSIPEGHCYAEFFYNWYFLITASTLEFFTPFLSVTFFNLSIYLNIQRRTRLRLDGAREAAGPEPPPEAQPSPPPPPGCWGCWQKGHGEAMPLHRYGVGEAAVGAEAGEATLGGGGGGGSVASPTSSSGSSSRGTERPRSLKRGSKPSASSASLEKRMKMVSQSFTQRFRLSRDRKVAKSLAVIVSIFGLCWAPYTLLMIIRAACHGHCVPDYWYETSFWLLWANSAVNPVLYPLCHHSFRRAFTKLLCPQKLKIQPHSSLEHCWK

The assay concerns the target T1, Human Histamine H3 Receptor (Homo sapiens, UniProt Q9Y5N1).
T1 construct: expressed in transfected cells; host or cells: HEK293T cells, stably transfected; membrane preparation
Description: Methyl histamine binding in human histamine H3 receptor cell line. The settings on record: membranes of stably transfected HEK293T cells; radioligand 1 nM; Ki from IC50 by Cheng-Prusoff. The procedure:
Evaluation of Methyl Histamine Binding in Human Histamine H3 Receptor Cell Line
The affinity of test compounds for the histamine 3 (H3) receptor is evaluated in the following manner. Stably transfected HEK293T cells are grown in DMEM containing 10% heat inactivated FBS and G-418 (500 ug/ml). Cells are scraped from the plate, transferred to centrifuge tubes, washed one time in PBS by centrifugation in a Sorvall RT7 Plus centrifuge (2000 rpm 10 minutes, 4° C.). The resulting pellets are stored at −80° C. until ready for use. Cells are re-suspended in buffer (50 mM Tris pH=7.5) and placed in a Dounce homogenizer, douncing ten times to homogenize cells. The homogenate is spun down by centrifugation (Sorvall RT7 Plus, 1800 rpm 10 minutes, 4° C.). The supernatant is placed in a Corex tube and spun down by centrifugation (Sorvall RC 5c Plus, 17,000 rpm 20 minutes, 4° C.). The pellet is resuspended in buffer (50 mM Tris, pH 7.5). Protein concentration (ug/ul) is determined using the Micro-BCA Protein Determination. The binding assay is set up in a 96 well microtiter plate in a total volume of 250 uL. Non-specific binding is determined in the presence of 10 uM clobenpropit. The final radioligand concentration is 1 nM. The test compound is serially diluted using the Beckman Biomek2000 to a final approximate range of 100 uM to 100 pM. Membranes are suspended in buffer, homogenized in 2 bursts of ten seconds using a Vitris mechanical homogenizer set at power setting 5. Ten μg of membranes are added to each well. Following a one hour incubation at 30° C., the reaction is terminated by the addition of ice cold buffer and rapid filtration with a Packard Filtermate Harvester through a GF/B filter pre-soaked with 1% PEI for one hour. The plate is dried for one hour at 37° C. and 60 μL Microscint Scintillant is added to each well. The CPM per well is measured on a Packard Top Count NXT. Ki values are determined in nM. The Ki is calculated from the IC50 (i.e. the concentration of competing ligand which displaces 50% of the specific binding of the radioligand). CPM values are expressed as % specific binding and plotted vs compound concentration. A curve is fitted using a four-parameter logistic fit and the IC50 value is determined. The Ki is calculated from this using the Cheng-Prusoff equation: […]=IC50/1+(L/Kd) where L=concentration of free radioligand used in the assay, and Kd is the dissociation constant of the radioligand for the receptor. L is determined for each experiment by counting an aliquot of the diluted radioligand (corresponding to that added to each well) and the Kd has previously been determined under identical conditions for this cell line/radioligand.
By Ki is commonly meant a measure of affinity in units of concentration, obtained from inhibition or displacement. Read a high Ki as lower affinity. For `CCNC(=O)c1ccc(-c2ccc3c(c2)CCN([C@@H]2CCN(C4CCC4)C2)C3=O)cc1` [Example 45, 4-{2-[(3R)-1-cyclobutylpyrrolidin-3-yl]-1-oxo-1,2,3,4-tetrahydroisoquinolin-6-yl}-N-ethylbenzamide], the Ki was ≤ 10 nM.

In the case of `O=C(c1ccc(-c2ccc3c(c2)CCN([C@@H]2CCN(C4CCC4)C2)C3=O)cc1Cl)N1CCCC1` [Example 49, 6-[3-chloro-4-(pyrrolidin-1-ylcarbonyl)phenyl]-2-[(3R)-1-cyclobutylpyrrolidin-3-yl]-3,4-dihydroisoquinolin-1(2H)-one], the inhibition constant Ki is ≤ 10 nM.

Turning to `CNC(=O)c1ccc(Oc2ccc3c(c2)CCN([C@@H]2CCN(C4CCCC4)C2)C3=O)cc1` [Example 37, 4-({2-[(3R)-1-cyclopentylpyrrolidin-3-yl]-1-oxo-1,2,3,4-tetrahydroisoquinolin-6-yl}oxy)-N-methylbenzamide], the Ki was ≤ 10 nM.

`CCN(CC)C(=O)c1ccc(Oc2ccc3c(c2)CCN(C2CCN(C4CCC4)CC2)C3=O)cc1` [Example 11, 4-{[2-(1-Cyclobutylpiperidin-4-yl)-1-oxo-1,2,3,4-tetrahydroisoquinolin-6-yl]oxy}-N,N-diethylbenzamide] displayed a Ki of 25.1 to 50 nM.

The compound `COC(=O)c1ccc(Oc2ccc3c(c2)CCN(C2CCN(C4CCC4)CC2)C3=O)cc1` [Example 1, methyl 4-{[2-(1-Cyclobutylpiperidin-4-yl)-1-oxo-1,2,3,4-tetrahydroisoquinolin-6-yl]oxy}benzoate] had an inhibition constant Ki of 50.1 to 100 nM.

`O=C(NC1CCC1)c1ccc(Oc2ccc3c(c2)CCN(C2CCN(C4CCC4)CC2)C3=O)cc1` [Example 8, N-Cyclobutyl-4-{[2-(1-cyclobutylpiperidin-4-yl)-1-oxo-1,2,3,4-tetrahydroisoquinolin-6-yl]oxy}benzamide]: the inhibitory constant (Ki) was ≤ 10 nM.

Regarding `CCNC(=O)c1ccc(Oc2ccc3c(c2)CCN([C@@H]2CCN(C4CCC4)C2)C3=O)cc1` [Example 34, 4-({2-[(3R)-1-cyclobutylpyrrolidin-3-yl]-1-oxo-1,2,3,4-tetrahydroisoquinolin-6-yl}oxy)-N-ethylbenzamide], the Ki was ≤ 10 nM.

For `CC(C)N1CC[C@@H](N2CCc3cc(-c4ccc(C(=O)N5CCCC5)cc4F)ccc3C2=O)C1` [Example 84, 6-[2-fluoro-4-(pyrrolidin-1-ylcarbonyl)phenyl]-2-[(3R)-1-isopropylpyrrolidin-3-yl]-3,4-dihydroisoquinolin-1(2H)-one], the inhibitory constant (Ki) was ≤ 10 nM.

As to `O=C(NC1CCCC1)c1ccc(Oc2ccc3c(c2)CCN(C2CCN(C4CCC4)CC2)C3=O)cc1` [Example 9, 4-{[2-(1-Cyclobutylpiperidin-4-yl)-1-oxo-1,2,3,4-tetrahydroisoquinolin-6-yl]oxy}-N-cyclopentylbenzamide], the Ki lay within 10.1 to 25 nM.

On to `O=C(c1ccc(-c2ccc3c(c2)CCN([C@@H]2CCN(C4CCCC4)C2)C3=O)cc1)N1CCCC1` [Example 43, 2-[(3R)-1-cyclopentylpyrrolidin-3-yl]-6-[4-(pyrrolidin-1-ylcarbonyl)phenyl]-3,4-dihydroisoquinolin-1(2H)-one], for which the inhibition constant Ki is ≤ 10 nM.

As for `O=C(c1ccc(-c2ccc3c(c2)CN([C@@H]2CCN(C4CCC4)C2)C3=O)cc1)N1CCCC1` [Example 92, (R)-2-(1-cyclobutylpyrrolidin-3-yl)-5-(4-(pyrrolidine-1-carbonyl)-phenyl)isoindolin-1-one hydrochloride], the inhibitory constant (Ki) was ≤ 10 nM.

For `O=C1NCCc2cc(-c3ccc4c(c3)CCN([C@@H]3CCN(C5CCC5)C3)C4=O)ccc21` [Example 89, (R)-2-(1-cyclobutylpyrrolidin-3-yl)-3,3′,4,4′-tetrahydro-6,6′-biisoquinoline-1,1′(2H,2′H)-dione hydrochloride], the Ki is ≤ 10 nM.

Take `O=C(c1ccc(Oc2ccc3c(c2)CCN(C2CCN(C4CCC4)CC2)C3=O)cc1)N1CCCC1` [Example 12, 2-(1-Cyclobutylpiperidin-4-yl)-6-[4-(pyrrolidin-1-ylcarbonyl)phenoxy]-3,4-dihydroisoquinolin-1(2H)-one]: the Ki was ≤ 10 nM.

For the compound `O=C(c1ccc(Oc2ccc3c(c2)CCN([C@@H]2CCN(C4CCCC4)C2)C3=O)cc1)N1CCCC1` [Example 39, 2-[(3R)-1-cyclopentylpyrrolidin-3-yl]-6-[4-(pyrrolidin-1-ylcarbonyl)phenoxy]-3,4-dihydroisoquinolin-1(2H)-one], the Ki is ≤ 10 nM.

On to `CCNC(=O)c1ccc(-c2ccc3c(c2)CCN([C@@H]2CCN(C(C)C)C2)C3=O)c(F)c1` [Example 86, N-ethyl-3-fluoro-4-{2-[(3R)-1-isopropylpyrrolidin-3-yl]-1-oxo-1,2,3,4-tetrahydroisoquinolin-6-yl}benzamide], for which the Ki was ≤ 10 nM.

`O=C(NC1CCCC1)c1ccc2c(c1)CCN([C@@H]1CCN(C3CCC3)C1)C2=O` [Example 88, 2-[(3R)-1-cyclobutylpyrrolidin-3-yl]-N-cyclopentyl-1-oxo-1,2,3,4-tetrahydroisoquinoline-6-carboxamide hydrochloride] returned a Ki of 10.1 to 25 nM.

`CN(C)C(=O)c1ccc(Oc2ccc3c(c2)CCN(C2CCN(C4CCC4)CC2)C3=O)cc1` [Example 10, 4-{[2-(1-Cyclobutylpiperidin-4-yl)-1-oxo-1,2,3,4-tetrahydroisoquinolin-6-yl]oxy}-N,N-dimethylbenzamide] had an inhibitory constant (Ki) of 10.1 to 25 nM.

Regarding `N#Cc1ccc(-c2ccc3c(c2)CN(C2CCN(CC4CC4)CC2)C3=O)cc1` [Example 26, 4-{2-[1-(Cyclopropylmethyl)piperidin-4-yl]-1-oxo-2,3-dihydro-1H-isoindol-5-yl}benzonitrile], the Ki fell in the range of 50.1 to 100 nM.

As to `CCNC(=O)c1ccc(-c2ccc3c(c2)CCN([C@@H]2CCN(C(C)C)C2)C3=O)cc1` [Example 83, N-ethyl-4-{2-[(3R)-1-isopropylpyrrolidin-3-yl]-1-oxo-1,2,3,4-tetrahydroisoquinolin-6-yl}benzamide], the Ki was ≤ 10 nM.

In the case of `C[C@H]1CCCN1C(=O)c1ccc(-c2ccc3c(c2)CCN([C@@H]2CCN(C4CCC4)C2)C3=O)c(F)c1` [Example 73, 2-[(3R)-1-cyclobutylpyrrolidin-3-yl]-6-(2-fluoro-4-{[(2S)-2-methylpyrrolidin-1-yl]carbonyl}phenyl)-3,4-dihydroisoquinolin-1(2H)-one], the inhibition constant Ki was ≤ 10 nM.

Take `CNC(=O)c1ccc(COc2ccc3c(c2)CCN(C2CCN(C4CCC4)CC2)C3=O)cc1` [Example 16, 4-({[2-(1-Cyclobutylpiperidin-4-yl)-1-oxo-1,2,3,4-tetrahydroisoquinolin-6-yl]oxy}methyl)-N-methylbenzamide]: the inhibition constant (Ki) was ≤ 10 nM.

As to `CN(C)C(=O)c1ccc(COc2ccc3c(c2)CCN(C2CCN(C4CCC4)CC2)C3=O)cc1` [Example 18, 4-({[2-(1-Cyclobutylpiperidin-4-yl)-1-oxo-1,2,3,4-tetrahydroisoquinolin-6-yl]oxy}methyl)-N,N-dimethylbenzamide], the Ki was ≤ 10 nM.

As to `CCNC(=O)c1ccc(-c2ccc3c(c2)CCN([C@@H]2CCN(C4CCC4)C2)C3=O)c(F)c1` [Example 77, 4-{2-[(3R)-1-cyclobutylpyrrolidin-3-yl]-1-oxo-1,2,3,4-tetrahydroisoquinolin-6-yl}-N-ethyl-3-fluorobenzamide], the Ki is ≤ 10 nM.

Take `CNC(=O)c1ccc(Oc2ccc3c(c2)CCN(C2CCN(C4CCC4)CC2)C3=O)cc1` [Example 4, 4-{[2-(1-Cyclobutylpiperidin-4-yl)-1-oxo-1,2,3,4-tetrahydroisoquinolin-6-yl]oxy}-N-methylbenzamide]: the Ki is ≤ 10 nM.
